Target: Proteasome chymotrypsin-like activity (S26 protein from RPMI8226 cells) (Homo sapiens, UniProt P28074)
Assay type: biochemical
Details: S26 protein from RPMI8226 cell extract 2 ug/well, substrate 20 uM, 37° C., 90 minutes; read-out: Proteasome chymotrypsin-like activity inhibition IC50
Method in brief: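 S26 proteasome fraction from homogenized RPMI8226 myeloma cells in 20 mM Tris-HCl pH 8.0 (2 ug extract/well) incubated 90 min at 37 °C with compound serially diluted from 10 uM (0.5% DMSO).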

Proteasome chymotrypsin-like activity (S26 protein from RPMI8226 cells), sequence (P28074 60-263 limits assumed): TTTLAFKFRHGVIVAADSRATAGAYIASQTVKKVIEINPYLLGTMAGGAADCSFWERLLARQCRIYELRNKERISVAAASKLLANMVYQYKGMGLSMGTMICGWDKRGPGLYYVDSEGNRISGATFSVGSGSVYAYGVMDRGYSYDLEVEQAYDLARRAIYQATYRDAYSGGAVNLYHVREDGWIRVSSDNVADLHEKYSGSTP

Compound | IC50 [nM]
CC(C)C[C@H](NC(=O)C1(Cc2ccccc2)CC(CNS(=O)(=O)c2cccc3cccnc23)=NO1)B(O)O (stereo partly drawn) [Example 144, ((1R)-1-(5-benzyl-3-((quinolin-8-sulfonamido)methyl)-4,5-dihydroisoxazol-5-carboxamido)-3-methylbutyl)boronic acid] | < 10
CC(C)C[C@H](NC(=O)C1CC(c2cccc(Oc3ccccc3)c2)=NO1)B(O)O (stereo partly drawn) [Example 40, ((1R)-3-methyl-1-(3-(3-phenoxyphenyl)-4,5-dihydroisoxazol-5-carboxamido)butyl)boronic acid] | < 500
CC(C)C[C@H](NC(=O)C1CC(CNC(=O)c2cnccn2)=NO1)B(O)O (stereo partly drawn) [Example 83, ((1R)-3-methyl-1-(3-((pyrazin-2-carboxamido)methyl)-4,5-dihydroisoxazol-5-carboxamido)butyl)boronic acid] | < 250
CC(C)C[C@H](NC(=O)C1CC(CNC(=O)c2ccc3ccccc3c2)=NO1)B(O)O (stereo partly drawn) [Example 69, [(1R)-3-methyl-1-[[3-[(naphthalen-2-carbonylamino)methyl]-4,5-dihydro-1,2-oxazol-5-carbonyl]amino]butyl]boronic acid] | < 25
CC(C)C[C@H](NC(=O)C1(C(F)(F)c2ccccc2)CC(CNC(=O)c2cccn3ccnc23)=NO1)B(O)O (stereo partly drawn) [Example 156, ((1R)-1-(5-(difluoro(phenyl)methyl)-3-((imidazo[1,2-a]pyridin-8-carboxamido)methyl)-4,5-dihydroisoxazol-5-carboxamido)-3-methylbutyl)boronic acid] | < 25
CC(C)C[C@H](NC(=O)C1(CC(C)C)CC(CNC(=O)c2nccc3ccccc23)=NO1)B(O)O (stereo partly drawn) [Example 91, ((1R)-1-(5-isobutyl-3-((isoquinolin-1-carboxamido)methyl)-4,5-dihydroisoxazol-5-carboxamido)-3-methylbutyl)boronic acid] | < 25
CC(C)C[C@H](NC(=O)C1CC(CNC(=O)c2cccc3ncccc23)=NO1)B(O)O (stereo partly drawn) [Example 62, ((1R)-3-methyl-1-(3-((quinolin-5-carboxamido)methyl)-4,5-dihydroisoxazol-5-carboxamido)butyl)boronic acid] | < 25
CC(C)C[C@H](NC(=O)C1(C)CC(c2ccccc2)=NO1)B(O)O (stereo partly drawn) [Example 5, ((1R)-3-methyl-1-(5-methyl-3-phenyl-4,5-dihydroisoxazol-5-carboxamido)butyl)boronic acid] | > 1000
CC(C)C[C@H](NC(=O)C1CC(c2cnc3ccccc3c2)=NO1)B(O)O (stereo partly drawn) [Example 29, ((1R)-3-methyl-1-(3-(quinolin-3-yl)-4,5-dihydroisoxazol-5-carboxamido)butyl)boronic acid] | < 500
CC(C)C[C@H](NC(=O)C1CC(CNC(=O)c2ccccn2)=NO1)B(O)O (some centres unmarked) [Example 60] | < 250
CC(C)C[C@H](NC(=O)C1(Cc2ccccc2)CC(CNC(=O)c2cc3ccccc3s2)=NO1)B(O)O (stereo partly drawn) [Example 93, ((1R)-1-(3-((benzo[b]thiophen-2-carboxamido)methyl)-5-benzyl-4,5-dihydroisoxazol-5-carboxamido)-3-methylbutyl)boronic acid] | < 10
CC(C)C[C@H](NC(=O)C1(Cc2ccccc2)CC(CNC(=O)c2ccc(-c3ccccc3)cc2)=NO1)B(O)O (stereo partly drawn) [Example 94, ((1R)-1-(3-([1,1′-biphenyl]-4-carboxamidomethyl)-5-benzyl-4,5-dihydroisoxazol-5-carboxamido)-3-methylbutyl)boronic acid] | < 10

Continued, values first:

IC50 [nM] | Compound
< 10 | CC(C)C[C@H](NC(=O)C1(Cc2cccc(Cl)c2)CC(CNC(=O)c2cc(-c3ccccc3)nn2C(C)C)=NO1)B(O)O (stereo partly drawn) [Example 249, ((1R)-1-(5-(3-chlorobenzyl)-3-((1-isopropyl-3-phenyl-1H-pyrazol-5-carboxamido)methyl)-4,5-dihydroisoxazol-5-carboxamido)-3-methylbutyl)boronic acid]
< 10 | CC(C)C[C@H](NC(=O)C1(Cc2cccc(Cl)c2)CC(CNC(=O)c2cccn3ccnc23)=NO1)B(O)O (stereo partly drawn) [Example 177, ((1R)-1-(5-(3-chlorobenzyl)-3-((imidazo[1,2-a]pyridin-8-carboxamido)methyl)-4,5-dihydroisoxazol-5-carboxamido)-3-methylbutyl)boronic acid]
< 10 | CC(C)C[C@H](NC(=O)C1(Cc2ccccc2)CC(C(C)(C)NC(=O)c2nccc3ccccc23)=NO1)B(O)O (stereo partly drawn) [Example 157, [(1R)-1-[[5-benzyl-3-[1-(isoquinolin-1-carbonylamino)-1-methyl-ethyl]-4H-1,2-oxazol-5-carbonyl]amino]-3-methyl-butyl]boronic acid]
< 10 | Cc1cccc(CC2(C(=O)N[C@@H](CC(C)C)B(O)O)CC(CNC(=O)c3cc(C)nn3C3CCOCC3)=NO2)c1 (stereo partly drawn) [Example 251, ((1R)-3-methyl-1-(3-((3-methyl-1-(tetrahydro-2H-pyran-4-yl)-1H-pyrazol-5-carboxamido)methyl)-5-(3-methylbenzyl)-4,5-dihydroisoxazol-5-carboxamido)butyl)boronic acid]
< 10 | COc1cccc(CC2(C(=O)N[C@@H](CC(C)C)B(O)O)CC(CNC(=O)c3cc(C)nn3C(C)C)=NO2)c1 (stereo partly drawn) [Example 232, ((1R)-1-(3-((1-isopropyl-3-methyl-1H-pyrazol-5-carboxamido)methyl)-5-(3-methoxybenzyl)-4,5-dihydroisoxazol-5-carboxamido)-3-methylbutyl)boronic acid]
< 25 | Cc1nn(C)cc1C(=O)NCC1=NOC(Cc2ccccc2)(C(=O)N[C@@H](CC(C)C)B(O)O)C1 (stereo partly drawn) [Example 226, ((1R)-1-(5-benzyl-3-((1,3-dimethyl-1H-pyrazol-4-carboxamido)methyl)-4,5-dihydroisoxazol-5-carboxamido)-3-methylbutyl)boronic acid]
< 10 | CC(C)C[C@H](NC(=O)C1(Cc2ccccc2)CC(CNC(=O)c2cc(-c3cccnc3)nn2C(C)C)=NO1)B(O)O (stereo partly drawn) [Example 228, ((1R)-1-(5-benzyl-3-((1-isopropyl-3-(pyridin-3-yl)-1H-pyrazol-5-carboxamido)methyl)-4,5-dihydroisoxazol-5-carboxamido)-3-methylbutyl)boronic acid]
< 25 | O=C(N[C@@H](Cc1ccccc1)B(O)O)C1(Cc2ccccc2)CC(COCc2cccc(Cl)c2)=NO1 (stereo partly drawn) [Example 261, ((1R)-1-(5-benzyl-3-(((3-chlorobenzyl)oxy)methyl)-4,5-dihydroisoxazol-5-carboxamido)-2-phenylethyl)boronic acid]
< 10 | CC(C)C[C@H](NC(=O)C1(Cc2ccccc2)CC(CNC(=O)c2nccnc2N)=NO1)B(O)O (stereo partly drawn) [Example 161, ((1R)-1-(3-((3-aminopyrazin-2-carboxamido)methyl)-5-benzyl-4,5-dihydroisoxazol-5-carboxamido)-3-methylbutyl)boronic acid]
< 10 | CC(C)C[C@H](NC(=O)C1(Cc2cc(F)cc(F)c2)CC(CNC(=O)c2nccc3ccccc23)=NO1)B(O)O (stereo partly drawn) [Example 183, ((1R)-1-(5-(3,5-difluorobenzyl)-3-((isoquinolin-1-carboxamido)methyl)-4,5-dihydroisoxazol-5-carboxamido)-3-methylbutyl)boronic acid]
< 10 | COc1cccc(C(=O)NCC2=NOC(Cc3ccccc3)(C(=O)N[C@@H](Cc3ccccc3)B(O)O)C2)c1 (stereo partly drawn) [Example 285, ((1R)-1-(5-benzyl-3-((3-methoxybenzamido)methyl)-4,5-dihydroisoxazol-5-carboxamido)-2-phenylethyl)boronic acid]

— patent US12570675B2, “Boronic acid compounds” (LG CHEM, LTD., priority 2020, dated 2026)
